Experimental data as given in patent US6395683B1, “Heterocyclylbenzonitriles” (Bayer Aktiengesellschaft, priority 1994, dated 2002).

Experiments:
Assay in all cases: Post-emergence test
Format in all cases: in vivo
[1] = tested on: Chenopodium; settings: 30 g/ha, after three weeks
Experimental: (§1) Post-emergence Test Solvent: 5 parts by weight of acetone Emulsifier: 1 part by weight of alkylaryl polyglycol ether To produce a suitable preparation of active compound, 1 part by weight of active compound is mixed with the stated amount of solvent, the stated amount of emulsifier is added and the concentrate is diluted with water to the desired concentration. Test plants which have a height of 5-15 cm are sprayed with the preparation of the active compound in such a way as to apply the particular amounts of active compound desired per unit area. After three weeks, the degree of damage to the plants is rated in % damage in comparison to the development of the untreated control. The figures denote: 0%=no action (like untreated control) 100%=total destruction

[2] = tested on: Amaranthus; settings: 30 g/ha, after three weeks
Experimental: as §1

[3] = tested on: Abutilon; settings: 30 g/ha, after three weeks
Experimental: as §1

[4] = tested on: Veronica; settings: 30 g/ha, after three weeks
Experimental: as §1

[5] = tested on: barley; settings: 30 g/ha, barley (crop plant), after three weeks
Experimental: as §1

CS(=O)(=O)Nc1cc(N2C(=O)C3=C(CCCC3)C2=O)c(F)cc1C#N [Example 1, N-(4-cyano-2-fluoro-5-methylsulphonylaminophenyl)-3,4,5,6-tetrahydrophthalimide]
degree of damage to the plants, % damage in comparison to untreated control [1]: 95%
degree of damage to the plants, % damage in comparison to untreated control [2]: 100%
degree of damage to the plants, % damage in comparison to untreated control [3]: 100%
degree of damage to the plants, % damage in comparison to untreated control [4]: 100%
tolerance with respect to crop plants [5]: very good tolerance
